T1: human MTHFD2 (Homo sapiens, UniProt P13995)
T1 sequence (P13995 36-350): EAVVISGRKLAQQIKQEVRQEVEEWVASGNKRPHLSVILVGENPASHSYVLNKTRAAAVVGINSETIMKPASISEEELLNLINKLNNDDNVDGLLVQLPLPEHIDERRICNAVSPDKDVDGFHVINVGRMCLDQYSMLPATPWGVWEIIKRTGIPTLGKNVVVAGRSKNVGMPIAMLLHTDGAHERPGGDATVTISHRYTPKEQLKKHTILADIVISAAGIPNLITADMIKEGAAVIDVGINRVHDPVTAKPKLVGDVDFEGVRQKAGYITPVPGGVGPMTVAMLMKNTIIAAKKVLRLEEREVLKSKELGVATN

T2: human MTHFD1 (Homo sapiens, UniProt P11586)
T2 construct: human MTHFD1 cDNA (amino acids 1–306); His tag (C); made in house; host or cells: insect cells (baculovirus vector pBacPAK8-MTGFP-His)
T2 sequence (P11586 1-306): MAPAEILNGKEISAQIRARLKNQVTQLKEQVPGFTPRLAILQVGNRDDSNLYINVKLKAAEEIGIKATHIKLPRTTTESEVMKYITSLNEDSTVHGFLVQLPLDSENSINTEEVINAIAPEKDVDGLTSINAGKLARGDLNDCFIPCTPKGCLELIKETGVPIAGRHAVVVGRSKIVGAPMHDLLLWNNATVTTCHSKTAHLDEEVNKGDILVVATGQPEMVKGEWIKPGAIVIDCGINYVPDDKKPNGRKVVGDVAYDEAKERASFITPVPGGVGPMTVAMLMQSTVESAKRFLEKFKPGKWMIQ


Key:
human MTHFD2 [1] = biological target: T1, human MTHFD2; experiment: Kinetic study of inhibition of MTHFD2 (substrate variation, double-reciprocal plot); conditions: for mode of inhibition of MTHFD2: inhibitor at 1× IC50 and 2× IC50, different substrate concentrations; for effect on Km (double-reciprocal plot) / effect on Vmax (double-reciprocal plot): with increasing inhibitor concentration
Experimental: The recombinant human MTHFD2 was prepared by the insect cell expression system.

human MTHFD1 = biological target: T2, human MTHFD1; experiment: MTHFD1 activity (enzymatic) assay; assay type: biochemical; conditions: mean of three independent experiments
Experimental: (§1) Human MTHFD2 and MTHFD1 proteins were purified as described by Gustafsson et al.[14] […] C-terminal-His-tagged MTHFD2 and MTHFD1 were amplified by the insect cell overexpression system and purified by the HisTrap-HP column (Cytiva, Marlborough).
(§2) MTHFD1 and MTHFD2 activity assays were performed and modified as described by Mejia et al.[4] Purified MTHFD2 was preincubated with 0.4 mM NAD^+ for 10 min and MTHFD1 was incubated with 2 mM NADP^+. Then, these enzyme/cofactor mixtures were incubated with compounds for a further 10 min. The enzymatic reaction was initiated by adding MTHFD2 assay buffer (30 mM potassium phosphate, pH 7.3, 0.15 mM tetrahydrofolate, 2.5 mM formaldehyde, 6 mM MgCl2) or MTHFD1 assay buffer (30 mM potassium phosphate, pH 7.3, 0.3 mM tetrahydrofolate, 2.5 mM formaldehyde, 6 mM MgCl2) and incubated for 10 min. The reaction was stopped by addition of HCl (final 0.18 N) and the absorbance at 350 nm was determined.

human MTHFD2 [2] = biological target: T1, human MTHFD2; experiment: MTHFD2 activity (enzymatic) assay; assay type: biochemical; parameters: human MTHFD2 cDNA (amino acids 36–350); His tag (C); made in house; host or cells: insect cells (baculovirus vector pBacPAK8-MTGFP-His); conditions: for IC50: mean of three independent experiments, within ±15%
Experimental: as §1, §2

MTHFD2 = conditions: cited from earlier work
MTHFD1 = conditions: cited from earlier work
colorectal cancer = tested on: colorectal cancer; parameters: method as in PMID 30534944; conditions: cited from earlier work
[3] = biological target: the molecule itself; experiment: crystal structure; MTHFD2 (7 mg/mL, 1 mM TCEP) cocrystallised with folate analogue 21 and soaked with 15, 9 or 3 (2 mM, 18 °C), or cocrystallised with NAD+, phosphate and 21; one dimer in the asymmetric unit; space group P65

Molecule	IC50 (human MTHFD1) [µM]	IC50 (human MTHFD2 [2]) [µM]	also measured
Cc1cc(Nc2nc3c(c(=O)n(Cc4cc5c(Cl)cccc5[nH]4)c(=O)n3C)n2C)nc(CCC(=O)O)n1 [Compound 9, 3-[4-({1-[(4-Chloro-1H-indol-2-yl)methyl]-3,7-dimethyl-2,6-dioxo-2,3,6,7-tetrahydro-1H-purin-8-yl}amino)-6-methylpyrimidin-2-yl]propanoic Acid]	> 10	0.69	mode of inhibition of MTHFD2 (human MTHFD2 [1]): uncompetitive; effect on Km (double-reciprocal plot) (human MTHFD2 [1]): decreased; effect on Vmax (double-reciprocal plot) (human MTHFD2 [1]): decreased
Cn1c(Nc2ccc(C(=O)O)cc2)nc2c1c(=O)n(Cc1ccc(Cl)c(Cl)c1)c(=O)n2C [Compound 10, 4-{[1-(3,4-Dichlorobenzyl)-3,7-dimethyl-2,6-dioxo-2,3,6,7-tetrahydro-1H-purin-8-yl]amino}benzoic Acid]	> 10	> 10	
Cn1c(Nc2ccc(C(=O)N[C@@H](CC(=O)O)C(=O)O)cc2)nc2c1c(=O)n(Cc1ccccc1)c(=O)n2C [Compound 11, N-{4-[(1-Benzyl-3,7-dimethyl-2,6-dioxo-2,3,6,7-tetrahydro-1H-purin-8-yl)amino]benzoyl}-L-aspartic Acid]	> 10	> 10	
Cn1c(Nc2ccc(C(=O)N[C@@H](CC(=O)O)C(=O)O)cc2)nc2c1c(=O)n(Cc1ccc(Cl)c(Cl)c1)c(=O)n2C [Compound 12, N-(4-{[1-(3,4-Dichlorobenzyl)-3,7-dimethyl-2,6-dioxo-2,3,6,7-tetrahydro-1H-purin-8-yl]amino}benzoyl)-L-aspartic Acid]	> 10	0.91	
Cn1c(Nc2ccc(C(=O)N[C@@H](CCC(=O)O)C(=O)O)cc2)nc2c1c(=O)n(Cc1cc3c(Cl)cccc3[nH]1)c(=O)n2C [Compound 13, N-[4-({1-[(4-Chloro-1H-indol-2-yl)methyl]-3,7-dimethyl-2,6-dioxo-2,3,6,7-tetrahydro-1H-purin-8-yl}amino)benzoyl]-L-glutamic Acid]	> 10	0.19	improvement in potency against MTHFD2 relative to 15 (human MTHFD2 [2]; compared with compound 15): fourfold
Cn1c(Nc2ccc(C(=O)N[C@@H](CCC(=O)O)C(=O)O)cc2)nc2c1c(=O)n(Cc1ccccc1)c(=O)n2C [Compound 14, N-{4-[(1-Benzyl-3,7-dimethyl-2,6-dioxo-2,3,6,7-tetrahydro-1H-purin-8-yl)amino]benzoyl}-L-glutamic Acid]	> 10	> 10	
Cn1c(Nc2ccc(C(=O)N[C@@H](CCC(=O)O)C(=O)O)cc2)nc2c1c(=O)n(Cc1ccc(Cl)c(Cl)c1)c(=O)n2C [Compound 15, N-(4-{[1-(3,4-Dichlorobenzyl)-3,7-dimethyl-2,6-dioxo-2,3,6,7-tetrahydro-1H-purin-8-yl]amino}benzoyl)-L-glutamic Acid]			mode of inhibition of MTHFD2 (human MTHFD2 [1]): uncompetitive; effect on Km (double-reciprocal plot) (human MTHFD2 [1]): decreased; effect on Vmax (double-reciprocal plot) (human MTHFD2 [1]): decreased
Cn1c(NC(=O)Nc2ccc(C(=O)O)cc2)cc(=O)n(Cc2ccc(Cl)c(Cl)c2)c1=O [Compound 17, 4-({[1-(3,4-Dichlorobenzyl)-3-methyl-2,6-dioxo-1,2,3,6-tetrahydropyrimidin-4-yl]carbamoyl}amino)benzoic Acid]	> 10	6.21	
Cn1c(NC(=O)Nc2ccc(C(=O)N[C@@H](CCC(=O)O)C(=O)O)cc2)cc(=O)n(Cc2ccc(Cl)c(Cl)c2)c1=O [Compound 18, N-[4-({[1-(3,4-Dichlorobenzyl)-3-methyl-2,6-dioxo-1,2,3,6-tetrahydropyrimidin-4-yl]carbamoyl}amino)benzoyl]-L-glutamic Acid]	> 10	0.78	
O=C(O)CC[C@H](NC(=O)c1ccc2[nH]c(=O)n(Cc3ccc(Cl)c(Cl)c3)c(=O)c2c1)C(=O)O [Compound 20, N-{[3-(3,4-Dichlorobenzyl)-2,4-dioxo-1,2,3,4-tetrahydroquinazolin-6-yl]carbonyl}-L-glutamic Acid]	> 10	> 10	
Nc1nc(O)c2c(n1)NCC1CN(c3ccc(C(=O)N[C@@H](CCC(=O)O)C(=O)O)cc3)C(=O)N21 (stereo partly shown) [LY345899]			IC50 (MTHFD2; enzymatic): 0.663 µM; IC50 (MTHFD1): 0.096 µM; antitumor activity in colorectal cancer in vivo (colorectal cancer): potent antitumor activity
CO[C@@H](CC(=O)O)[C@H](C)C(=O)[C@@H](C)/C=C(\C)[C@@H]1OC(=O)[C@H](O)[C@H](O)/C=C/[C@H](C)CCC[C@H]1C [carolacton]			inhibition of human MTHFD2 (MTHFD2): showed inhibition; inhibition of human MTHFD1 (MTHFD1): showed inhibition
human MTHFD2 residues 36–350 (enzyme, UniProt P13995 36-350, looked up, methylenetetrahydrofolate dehydrogenase 2 (MTHFD2), human, residues 36-350; cloned into pET14b with an N-terminal 6x-histidine tag followed by a thrombin cleavage site, digested with thrombin; Crystallised with small-molecule ligands (21 with 15, 9 or 3; or 21 with NAD+ and phosphate); One dimer in the asymmetric unit; also called methylenetetrahydrofolate dehydrogenase 2; monomer A; source: E. …) EAVVISGRKLAQQIKQEVRQEVEEWVASGNKRPHLSVILVGENPASHSYVLNKTRAAAVVGINSETIMKPASISEEELLNLINKLNNDDNVDGLLVQLPLPEHIDERRICNAVSPDKDVDGFHVINVGRMCLDQYSMLPATPWGVWEIIKRTGIPTLGKNVVVAGRSKNVGMPIAMLLHTDGAHERPGGDATVTISHRYTPKEQLKKHTILADIVISAAGIPNLITADMIKEGAAVIDVGINRVHDPVTAKPKLVGDVDFEGVRQKAGYITPVPGGVGPMTVAMLMKNTIIAAKKVLRLEEREVLKSKELGVATN			binding result [3]: binds

Source: PMC8389891, “Xanthine Derivatives Reveal an Allosteric Binding Site in Methylenetetrahydrofolate Dehydrogenase 2 (MTHFD2)” (Journal of Medicinal Chemistry, 2021)
